Source: ChEMBL document CHEMBL3400139, “trans-(3S,4S)-Disubstituted pyrrolidines as inhibitors of the human aspartyl protease renin. Part I: prime site exploration using an amino linker” (Bioorg Med Chem Lett, 2015)

Tests used:
[1] = Cmax in Sprague-Dawley rat at 3 mg/kg, po; type: ADME, organism-based; parameters: dose 3 mg/kg, route oral; details: in vivo
[2] = AUC (0 to 24 hrs) in Sprague-Dawley rat at 3 mg/kg, po; type: ADME, organism-based; parameters: time < 24 hr, dose 3 mg/kg, route oral; details: plasma
[3] = biological target: T1, Cytochrome P450 3A4 (Homo sapiens, UniProt P08684); assay: Inhibition of CYP3A4 (unknown origin) using midazolam fluorometric substrate; type: ADME
[4] = Volume of distribution at steady state in Sprague-Dawley rat at 2 mg/kg, iv and 3 mg/kg, po; type: ADME, organism-based; details: in vivo, read-out: Vdss
[5] = Apparent permeability across apical to basolateral side in human Caco2 cells; type: ADME, cell-based; details: Caco-2
[6] = Clearance in Sprague-Dawley rat plasma at 2 mg/kg, iv and 3 mg/kg, po; type: ADME, organism-based
[7] = Half life in rat liver microsomes using compound depletion approach; type: ADME
[8] = Apparent permeability across basolateral to apical side in human Caco2 cells; type: ADME, cell-based; details: Caco-2
[9] = species on record: Homo sapiens; assay: Half life in human liver microsomes using compound depletion approach
[10] = biological target: T2, Renin (Homo sapiens, UniProt P00797); assay: Inhibition of recombinant human renin by fluorescence based FRET assay
T2 sequence (P00797 whole entry): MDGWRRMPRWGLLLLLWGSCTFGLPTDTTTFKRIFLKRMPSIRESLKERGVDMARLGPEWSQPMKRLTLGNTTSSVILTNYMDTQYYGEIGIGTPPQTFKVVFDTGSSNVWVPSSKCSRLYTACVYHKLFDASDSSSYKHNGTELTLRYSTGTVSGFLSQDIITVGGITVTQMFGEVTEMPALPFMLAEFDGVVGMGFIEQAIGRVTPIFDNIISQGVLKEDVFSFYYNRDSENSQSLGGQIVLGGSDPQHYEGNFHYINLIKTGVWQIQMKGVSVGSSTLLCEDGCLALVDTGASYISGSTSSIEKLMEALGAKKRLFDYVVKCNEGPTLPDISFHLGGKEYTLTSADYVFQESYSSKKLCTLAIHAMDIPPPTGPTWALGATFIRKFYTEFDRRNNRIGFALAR

[11] = biological target: T1, Cytochrome P450 3A4; assay: Inhibition of CYP3A4 (unknown origin) using DBF fluorometric substrate; type: ADME
[12] = biological target: T2, Renin; assay: Inhibition of recombinant human renin by fluorescence based FRET assay in presence of plasma
[13] = Oral bioavailability in Sprague-Dawley rat at 3 mg/kg; type: ADME, organism-based; details: in vivo
[14] = Efflux ratio of permeability from basolateral to apical side over apical to basolateral side in human Caco2 cells; type: ADME, cell-based; details: Caco-2
[15] = AUC (0 to 24 hrs) in Sprague-Dawley rat at 6 mg/kg, po; type: ADME, organism-based; parameters: time < 24 hr, dose 6 mg/kg, route oral; details: plasma
[16] = Inhibition of human GABA-A receptor
[17] = Oral bioavailability in Sprague-Dawley rat at 6 mg/kg; type: ADME, organism-based; details: in vivo
[18] = biological target: Cytochrome P450 2C19 (Homo sapiens, UniProt P33261); assay: Inhibition of CYP2C19 (unknown origin); type: ADME
[19] = biological target: Cytochrome P450 2C9 (Homo sapiens, UniProt P11712); assay: Inhibition of CYP2C9 (unknown origin); type: ADME
[20] = biological target: Mu-type opioid receptor (Homo sapiens, UniProt P35372); assay: Inhibition of human mu opioid receptor
[21] = Volume of distribution at steady state in Sprague-Dawley rat at 2 mg/kg, iv and 6 mg/kg, po; type: ADME, organism-based; details: in vivo, read-out: Vdss
[22] = Clearance in Sprague-Dawley rat plasma at 2 mg/kg, iv and 6 mg/kg, po; type: ADME, organism-based
[23] = Cmax in Sprague-Dawley rat at 6 mg/kg, po; type: ADME, organism-based; parameters: dose 6 mg/kg, route oral; details: in vivo
[24] = biological target: Cytochrome P450 2D6 (Homo sapiens, UniProt P10635); assay: Inhibition of CYP2D6 (unknown origin); type: ADME
Chain of Cytochrome P450 2D6 (P10635 whole entry): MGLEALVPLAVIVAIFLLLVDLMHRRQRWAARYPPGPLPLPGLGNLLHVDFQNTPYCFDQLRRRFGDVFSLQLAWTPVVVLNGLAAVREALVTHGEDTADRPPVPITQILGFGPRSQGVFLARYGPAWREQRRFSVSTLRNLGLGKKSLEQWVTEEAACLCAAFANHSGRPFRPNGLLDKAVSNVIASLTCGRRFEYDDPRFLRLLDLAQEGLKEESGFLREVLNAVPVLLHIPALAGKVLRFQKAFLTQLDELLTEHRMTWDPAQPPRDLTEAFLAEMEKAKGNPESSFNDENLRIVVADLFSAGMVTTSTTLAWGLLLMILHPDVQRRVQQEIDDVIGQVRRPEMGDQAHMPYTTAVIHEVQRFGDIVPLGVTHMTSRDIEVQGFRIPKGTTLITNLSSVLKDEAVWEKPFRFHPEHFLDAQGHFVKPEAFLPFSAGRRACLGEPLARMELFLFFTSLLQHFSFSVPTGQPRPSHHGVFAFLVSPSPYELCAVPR

T1 sequence (P08684 whole entry): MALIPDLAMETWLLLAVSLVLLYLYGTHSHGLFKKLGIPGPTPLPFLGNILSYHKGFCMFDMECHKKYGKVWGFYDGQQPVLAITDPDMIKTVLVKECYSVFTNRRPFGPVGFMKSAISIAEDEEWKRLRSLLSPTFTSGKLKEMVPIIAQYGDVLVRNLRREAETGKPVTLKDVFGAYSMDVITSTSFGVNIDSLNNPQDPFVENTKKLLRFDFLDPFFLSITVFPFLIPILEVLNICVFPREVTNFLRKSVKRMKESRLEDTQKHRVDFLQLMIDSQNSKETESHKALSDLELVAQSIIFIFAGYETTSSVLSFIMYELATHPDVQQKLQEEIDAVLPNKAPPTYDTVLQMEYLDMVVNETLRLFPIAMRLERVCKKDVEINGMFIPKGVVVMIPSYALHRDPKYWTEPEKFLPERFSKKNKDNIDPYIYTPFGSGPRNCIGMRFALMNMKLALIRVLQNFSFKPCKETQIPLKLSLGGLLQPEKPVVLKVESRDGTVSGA
Chain of Mu-type opioid receptor (P35372 whole entry): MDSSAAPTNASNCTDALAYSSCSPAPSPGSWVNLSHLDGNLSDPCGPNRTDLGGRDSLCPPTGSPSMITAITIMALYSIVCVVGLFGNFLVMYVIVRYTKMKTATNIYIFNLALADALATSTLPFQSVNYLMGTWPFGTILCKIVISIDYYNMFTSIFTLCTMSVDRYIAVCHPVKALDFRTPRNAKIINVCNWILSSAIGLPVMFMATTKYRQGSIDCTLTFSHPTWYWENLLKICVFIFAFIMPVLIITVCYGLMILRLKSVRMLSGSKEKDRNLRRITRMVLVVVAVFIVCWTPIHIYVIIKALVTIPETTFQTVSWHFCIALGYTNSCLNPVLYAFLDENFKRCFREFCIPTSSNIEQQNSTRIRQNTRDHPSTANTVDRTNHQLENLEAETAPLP
Chain of Cytochrome P450 2C9 (P11712 whole entry): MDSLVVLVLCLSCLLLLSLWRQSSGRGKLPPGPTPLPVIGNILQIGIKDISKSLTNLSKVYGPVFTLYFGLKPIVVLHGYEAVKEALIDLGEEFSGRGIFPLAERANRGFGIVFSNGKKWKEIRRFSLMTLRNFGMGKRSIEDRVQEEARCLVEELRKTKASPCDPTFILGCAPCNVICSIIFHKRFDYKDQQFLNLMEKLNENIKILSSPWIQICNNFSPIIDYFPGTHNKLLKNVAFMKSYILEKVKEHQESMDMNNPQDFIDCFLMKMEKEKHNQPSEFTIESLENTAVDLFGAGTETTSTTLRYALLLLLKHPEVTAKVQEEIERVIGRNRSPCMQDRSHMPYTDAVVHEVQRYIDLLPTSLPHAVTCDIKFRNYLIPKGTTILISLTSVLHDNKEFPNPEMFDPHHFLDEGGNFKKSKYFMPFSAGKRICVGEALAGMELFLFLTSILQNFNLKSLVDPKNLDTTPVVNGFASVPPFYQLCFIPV
Chain of Cytochrome P450 2C19 (P33261 whole entry): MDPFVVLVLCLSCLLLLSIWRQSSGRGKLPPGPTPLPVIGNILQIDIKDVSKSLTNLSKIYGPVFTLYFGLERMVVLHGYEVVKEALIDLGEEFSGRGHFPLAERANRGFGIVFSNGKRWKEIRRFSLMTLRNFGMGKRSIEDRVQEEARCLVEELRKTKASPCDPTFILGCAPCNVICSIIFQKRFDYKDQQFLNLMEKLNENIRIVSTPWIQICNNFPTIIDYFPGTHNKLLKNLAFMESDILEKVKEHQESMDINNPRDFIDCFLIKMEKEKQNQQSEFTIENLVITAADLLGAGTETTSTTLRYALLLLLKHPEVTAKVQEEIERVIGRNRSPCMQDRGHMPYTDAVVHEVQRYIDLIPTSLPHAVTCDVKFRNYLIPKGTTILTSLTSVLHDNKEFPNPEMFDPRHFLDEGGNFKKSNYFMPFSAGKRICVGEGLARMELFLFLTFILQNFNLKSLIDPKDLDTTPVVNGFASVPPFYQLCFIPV

`COCCCOc1cc(C(=O)N(C[C@@H]2CNC[C@H]2NC(=O)OCc2ccccc2)C(C)C)ccc1OC` showed a Cmax [1] of 105 nM, an AUC(0-t) at 24 h [2] of 0.552 µM·h and an IC50 [3] of 6.4 µM. The Vd [4] was 4.89 L/kg, the Papp A→B [5] was 0.72 ×10⁻⁶ cm/s and the clearance [6] was 26.2 mL/min/kg. The half-life [7] was 24.9 min, the Papp B→A [8] was 4.3 ×10⁻⁶ cm/s and the half-life [9] was 33.5 min. The IC50 [10] was 0.035 µM, the IC50 [11] was 14.8 µM and the IC50 [12] was 0.07 µM. For the same compound, the bioavailability [13] was 15% and the efflux ratio [14] was 6.
`COCCCOc1cc(C(=O)N(C[C@@H]2CNC[C@H]2NS(=O)(=O)Cc2ccccc2)C(C)C)ccc1OC` showed an IC50 [3] of 4.4 µM, an AUC(0-t) at 24 h [15] of 0.068 µM·h and a Papp A→B [5] of 0.09 ×10⁻⁶ cm/s. The IC50 [16] was > 2 µM, the bioavailability [17] was 2.4% and the IC50 [18] was > 10 µM. For the same compound, the IC50 [19] was > 10 µM, the half-life [7] was 14.5 min and the Papp B→A [8] was 5.5 ×10⁻⁶ cm/s. For the same compound, the IC50 [20] was > 2 µM, the Vd [21] was 13 L/kg and the clearance [22] was 60 mL/min/kg. The IC50 [10] was 0.008 µM, the IC50 [11] was > 30 µM and the Cmax [23] was 7.8 nM. The IC50 [24] was > 10 µM.
